This is an account of results in patent publication US20150010498A1, “Immunocytokines for Cancer Treatment in Combination with Chemotherapeutic Agents” (Philogen S.p.A., priority 2007, published 2015).

Data set [1] has as its system MDA-MB-231 human breast cancer cells. The data set can be described thus: Therapy of MDA-MB231 human breast cancer model implanted in nude mice (tumor growth). In kind it is in vivo, Balb/c nude female mice. The settings on record: 4 mg/kg versus 1 mg/kg doxorubicin i.v.; FIG. 5. As to the method:
Tumor-bearing mice were obtained by injecting 2*10̂7 MDA-MB-231 human breast cancer cells s.c. in 10- to 12-week old Balb/c nude female mice (Charles River Laboratories). Mice were grouped (n=5) 9 days after tumor cell implantation when tumors were clearly palpable and injected i.v. in the lateral tail vein with saline, 20 μg F16-IL2 (corresponding to 6.6 μg IL2), 6.6 μg recombinant IL2 (Proleukin®, and 4 mg/kg or 1 mg/kg Doxorubicin in a maximum volume of 250 μl. Mice were monitored daily and tumor growth was measured three times weekly with a caliper using the following formula: volume=length×width2×0.5. Animals were sacrificed when tumors reached a volume >2000 mm3 or when tumors became necrotic according to Swiss regulations and under a project license granted by the
Veterinäramt des Kantons Zürich (198/2005). Tumor sizes are expressed as mean±SE.
Tumor-bearing mice produced in the same way were injected i.v. in the lateral tail vein with saline, 20 μg F16-IL2 (corresponding to 6.6 μg IL2), and 1 mg/kg or 5 mg/kg taxol™ in a maximum volume of 250 μl. Mice were monitored and tumor growth measured as described above.

For the next data set, the system named is tubulin. The settings on record: compared with paclitaxel; cited from earlier work.
Data set [2] relates to MDA-MB-231 human breast cancer cells. Description: Biodistribution of radioiodinated F16-IL2 after doxorubicin pre-injection. In kind it is in vivo, Balb/c nude female mice. The note with it: radioiodinated F16-IL2 i.v., sacrifice 24 h after injection; 10 mg/kg doxorubicin i.v. 8 days, 24 h or 2 h before; FIGS. 1 to 4. As for the experimental part:
The in vivo targeting performance was evaluated by biodistribution analysis. Tumor-bearing mice were obtained by injecting 10̂7 MDA-MB-231 human breast cancer cells s.c. in 10- to 12-week old Balb/c nude female mice (Charles River Laboratories). Mice were grouped (n≧5) when tumors were clearly palpable and injected i.v. in the lateral tail vein with 10 mg/kg doxorubicin 8 days, 24 h or 2 h prior to biodistribution. The control group was exempted from doxorubicin administration. Purified F16-IL2 was radioiodinated and injected into the lateral tail vein of all mice. Mice were sacrificed 24 h after injection (12.5 μg, 3.3 μCi per mouse). Organs were weighed and radioactivity was counted with a Packard Cobra gamma counter. Radioactivity content of representative organs was expressed as the percentage of the injected dose per gram of tissue (%ID/g).

On to `COc1cccc2c1C(=O)c1c(O)c3c(c(O)c1C2=O)C[C@@](O)(C(=O)CO)C[C@@H]3OC1CC(N)C(O)C(C)O1` (stereo partly drawn) [doxorubicin, (8S, 10S)-10-(4-amino-5-hydroxy-6-methyl-tetrahydro-2H-pyran-2-yloxy)-6,8,11-trihydroxy-8-(2-hydroxyacetyl)-1-methoxy-7,8,9,10-tetrahydrotetracene-5,12-dione], for which the “effect of doxorubicin dose on efficacy” value in data set [1] was “higher doses of doxorubicin were even more effective than low doses”.
As to A-nor-paclitaxel, in the data set on tubulin, the “tubulin-assembly activity relative to paclitaxel” value is reported as “only three times less than that of paclitaxel”.
Take “F16-IL2: antibody-IL2 conjugate: interleukin 2 conjugated to the anti-tenascin-C antibody 4A1-F16 (VH SEQ ID NO. 2, VL SEQ ID NO. 4)”: the “tumor targeting of the immunocytokine (biodistribution, %ID/g)” value in data set [2] was “does not impair the tumor targeting”.
